In paper PMC9146500, “New Quinoline–Urea–Benzothiazole Hybrids as Promising Antitubercular Agents: Synthesis, In Vitro Antitubercular Activity, Cytotoxicity Studies, and In Silico ADME Profiling” (Pharmaceuticals, 2022):
Converted amounts (≈) assume the structure as drawn. “And” between values parts separate entries of the source, which are not always exact repeats. Identical values can stand only once. Like-named read-outs stand apart in the source and are kept apart here.

Experiments:
[1] = system: Mycobacterium tuberculosis H37Rv pMSp12::GFP; assay: microbe, parasite or virus in culture; format: cell-based; conditions: Mtb H37Rv
[2] = system: Mycobacterium tuberculosis H37Rv pMSp12::GFP; assay: microbe, parasite or virus in culture; format: cell-based; conditions: Mtb H37Rv, protein-rich media, 7 days, read-out: MIC90 7H9/ADC/GLU/Tw 7 Days
MTT cytotoxicity assay = conditions: human; for IC20 at 24 h: IC20, HepG2, 24 h, MTT, concentration at which cells retain 80% viability, extrapolated from the dose–response curve
HepG2 cells = assay: MTT cytotoxicity assay; conditions: HepG2, 24 h, MTT; for IC20: concentration at which cells retain 80% viability, extrapolated from the dose–response curve
[3] = Mycobacterium tuberculosis, H37RV, 168 h, protein-poor media, 7 days, read-out: MIC90 7H9/CAS/GLU/Tx 7 Days
[4] = Mycobacterium tuberculosis, H37RV, 168 h
[5] = protein-poor media, 7 days, read-out: MIC90 7H9/CAS/GLU/Tx 7 Days
[6] = both media (CAS and ADC) or medium not given
[7] = Mycobacterium tuberculosis, 168 h, protein-poor media, 7 days, read-out: MIC90 7H9/CAS/GLU/Tx 7 Days
[8] = Mycobacterium tuberculosis, H37RV, both media (CAS and ADC) or medium not given, read-out: MIC90
[9] = Mycobacterium tuberculosis, 168 h

| Compound | MIC90 [1, 3] [µM] | MIC90 [2, 4] [µM] | viability at 24 h (MTT cytotoxicity assay) [%] | IC20 at 24 h (MTT cytotoxicity assay) [µM] | melting point | other results |
| --- | --- | --- | --- | --- | --- | --- |
| NCCCCCCNc1ccnc2cc(Cl)ccc12 [Compound 2e] | > 125 | > 125 |  |  |  |  |
| O=C(Nc1nc2ccc(F)cc2s1)n1ccnc1 [Compound 5b] | > 125 | > 125 |  |  |  |  |
| O=C(NNc1ccnc2cc(Cl)ccc12)Nc1nc2ccccc2s1 [Compound 6a, N-(Benzo[d]thiazol-2yl)-2-(7-chloroquinolin-4-yl)hydrazine-1-carboxamide] | 21 (≈ 7.77 µg/mL) | > 125 | 75 | 15.1 |  | MIC90 [1, 5]: 21.001 µM (≈ 7.77 µg/mL) |
| O=C(NNc1ccnc2cc(Cl)ccc12)Nc1nc2ccc(C(F)(F)F)cc2s1 [Compound 6b, 2-(7-Chloroquinolin-4-yl)-N-(6-(trifluoromethyl)benzo[d]thiazol-2-yl)hydrazine-1-carboxamide] | 4.94 (≈ 2.16 µg/mL) | 6.85 (≈ 3 µg/mL) |  |  |  | MIC90 [1, 6]: excellent activity in both media |
| O=C(NNc1ccnc2cc(Cl)ccc12)Nc1nc2ccc(F)cc2s1 [Compound 6c, 2-(7-Chloroquinolin-4-yl)-N-(6-fluorobenzo[d]thiazol-2-yl)hydrazine-1-carboxamide] | > 125 | > 125 |  |  |  |  |
| O=C(NNc1ccnc2cc(Cl)ccc12)Nc1nc2ccc([N+](=O)[O-])cc2s1 [Compound 6d, 2-(7-Chloroquinolin-4-yl)-N-(6-nitrobenzo[d]thiazol-2-yl)hydrazine-1-carboxamide] | > 125 | > 125 |  |  |  |  |
| O=C(NCCNc1ccnc2cc(Cl)ccc12)Nc1nc2ccc(C(F)(F)F)cc2s1 [Compound 6e, 1-(2-((7-Chloroquinolin-4-yl)amino)ethyl)-3-(6-(trifluoromethyl)benzo[d]thiazol-2-yl)urea] |  |  |  |  | 249 to 251 °C |  |
| O=C(NCCNc1ccnc2cc(Cl)ccc12)Nc1nc2ccc(Cl)cc2s1 [Compound 6f, 1-(6-Chlorobenzo[d]thiazol-2-yl)-3-(2-((7-chloroquinolin-4-yl)amino)ethyl)urea] | 125 (≈ 54 µg/mL) | > 125 |  |  | 244 to 245 °C |  |
| O=C(NCCNc1ccnc2cc(Cl)ccc12)Nc1nc2ccc(Br)cc2s1 [Compound 6g, 1-(6-Bromobenzo[d]thiazol-2-yl)-3-(2-((7-chloroquinolin-4-yl)amino)ethyl)urea] |  |  | 48 | 7.47 |  | MIC [1, 7]: 8.89 µM (≈ 4.24 µg/mL); MIC90 [1, 8]: 8.89 to 14.9 µM (≈ 4.24 to 7.1 µg/mL); IC20 (HepG2 cells): 4.26 µM; MIC [2, 9]: 14.9 µM (≈ 7.1 µg/mL) |
| O=C(NCCNc1ccnc2cc(Cl)ccc12)Nc1nc2ccc(F)cc2s1 [Compound 6h, 1-(6-Fluorobenzo[d]thiazol-2-yl)-3-(2-((7-chloroquinolin-4-yl)amino)ethyl)urea] |  |  |  |  |  | MIC [1, 7]: 62.5 µM (≈ 26 µg/mL); MIC90 [1, 8]: 62.5 µM (≈ 26 µg/mL); MIC [2, 9]: 62.5 µM (≈ 26 µg/mL) |
| O=C(NCCCNc1ccnc2cc(Cl)ccc12)Nc1nc2ccc(C(F)(F)F)cc2s1 [Compound 6i, 1-(3-((7-Chloroquinolin-4-yl)amino)propyl)-3-(6-(trifluoromethyl)benzo[d]thiazol-2-yl)urea] | 7.81 (≈ 3.75 µg/mL) | 12.8 (≈ 6.16 µg/mL) | 87 | 11.2 | 198 to 200 °C |  |
| O=C(NCCCNc1ccnc2cc(Cl)ccc12)Nc1nc2ccc(Cl)cc2s1 [Compound 6j, 1-(6-Chlorobenzo[d]thiazol-2-yl)-3-(3-((7-chloroquinolin-4-yl)amino)propyl)urea] | 4.39 (≈ 1.96 µg/mL) | 11.7 (≈ 5.24 µg/mL) | 86 | 26.3 | 286 to 288 °C | MIC90 [1, 5]: 4.389 µM (≈ 1.96 µg/mL) |
| Cc1ccc2nc(NC(=O)NCCCNc3ccnc4cc(Cl)ccc34)sc2c1 [Compound 6k, 1-(3-((7-Chloroquinolin-4-yl)amino)propyl)-3-(6-methylbenzo[d]thiazol-2-yl)urea] | 31.2 (≈ 13.3 µg/mL) | 62.3 (≈ 26.5 µg/mL) | 93 | 42.7 | 234 to 239 °C |  |
| O=C(NCCCNc1ccnc2cc(Cl)ccc12)Nc1nc2ccccc2s1 [Compound 6l, 1-(3-((7-Chloroquinolin-4-yl)amino)propyl)-3-(benzo[d]thiazol-2-yl)urea] | 9.63 (≈ 3.97 µg/mL) | 9.45 (≈ 3.89 µg/mL) | 100 | 105 |  | MIC90 [2]: 9.447 µM (≈ 3.89 µg/mL) |
| O=C(NCCCNc1ccnc2cc(Cl)ccc12)Nc1nc2ccc(Br)cc2s1 [Compound 6m, 1-(6-Bromobenzo[d]thiazol-2-yl)-3-(3-((7-chloroquinolin-4-yl)amino)propyl)urea] | 15.9 (≈ 7.82 µg/mL) | 16.9 (≈ 8.28 µg/mL) | 100 | 25.1 | 254 to 257 °C |  |
| O=C(NCCCNc1ccnc2cc(Cl)ccc12)Nc1nc2ccc(F)cc2s1 [Compound 6n, 1-(6-Fluorobenzo[d]thiazol-2-yl)-3-(3-((7-chloroquinolin-4-yl)amino)propyl)urea] | > 125 | 125 (≈ 53.7 µg/mL) |  |  | 241 to 243 °C | MIC90 [1, 6]: devoid of any activity |
| O=C(NCCCCNc1ccnc2cc(Cl)ccc12)Nc1nc2ccc(Cl)cc2s1 [Compound 6o, 1-(6-Chlorobenzo[d]thiazol-2-yl)-3-(4-((7-chloroquinolin-4-yl)amino)butyl)urea] | 7.46 (≈ 3.43 µg/mL) | 23.5 (≈ 10.8 µg/mL) | 30 | 2.13 | 189 to 191 °C and 189.8 to 191.3 °C | MIC [1, 7]: 7.43 µM (≈ 3.42 µg/mL) |
| O=C(NCCCCNc1ccnc2cc(Cl)ccc12)Nc1nc2ccc(Br)cc2s1 [Compound 6p] |  |  |  |  |  | MIC90 [1, 5]: 7.812 µM (≈ 3.94 µg/mL); IC20 (HepG2 cells): 2.13 µM; MIC90 cell viability (HepG2 cells; viability at the compound's MIC90 in the CAS assay, extrapolated from the curve): 56% |
| O=C(NCCCCNc1ccnc2cc(Cl)ccc12)Nc1nc2ccc(F)cc2s1 [Compound 6q, 1-(6-Fluorobenzo[d]thiazol-2-yl)-3-(4-((7-chloroquinolin-4-yl)amino)butyl)urea] | > 125 | > 125 |  |  | 256 to 259 °C | MIC90 [1, 6]: not active at all |
| O=C(NCCCCCCNc1ccnc2cc(Cl)ccc12)Nc1nc2ccc(Cl)cc2s1 [Compound 6r, 1-(6-Chlorobenzo[d]thiazol-2-yl)-3-(6-((7-chloroquinolin-4-yl)amino)hexyl)urea] | 7.6 (≈ 3.71 µg/mL) | 14.6 (≈ 7.14 µg/mL) | 72 | 5.47 | 239 to 241 °C |  |
| O=C(NCCCCCCNc1ccnc2cc(Cl)ccc12)Nc1nc2ccc(Br)cc2s1 [Compound 6s, 1-(6-Bromobenzo[d]thiazol-2-yl)-3-(6-((7-chloroquinolin-4-yl)amino)hexyl)urea] | 8.76 (≈ 4.67 µg/mL) | 21 (≈ 11.2 µg/mL) | 76 | 7.02 | 192 to 194 °C |  |
| O=C(NCCCCCCNc1ccnc2cc(Cl)ccc12)Nc1nc2ccc(F)cc2s1 [Compound 6t, 1-(6-((7-Chloroquinolin-4-yl)amino)hexyl)-3-(6-fluorobenzo[d]thiazol-2-yl)urea] | 6.97 (≈ 3.29 µg/mL) | 31.2 (≈ 14.7 µg/mL) | 92 | 12.9 | 256 to 259 °C | MIC90 [1, 8]: 6.97 to 31.2 µM (≈ 3.29 to 14.7 µg/mL) |
| CC(CNc1ccnc2cc(Cl)ccc12)NC(=O)Nc1nc2ccc(C(F)(F)F)cc2s1 (centres unmarked) [Compound 6u, 1-(1-((7-Chloroquinolin-4-yl)amino)propan-2-yl)-3-(6-(trifluoromethyl)benzo[d]thiazol-2-yl)urea] | 0.97 (≈ 0.466 µg/mL) | 5.73 (≈ 2.75 µg/mL) | 100 | 6.01 |  | MIC90 [1, 5]: 0.968 µM (≈ 0.465 µg/mL); MIC90 [2]: 5.732 µM (≈ 2.75 µg/mL) |
| CC(CNc1ccnc2cc(Cl)ccc12)NC(=O)Nc1nc2ccc(F)cc2s1 (centres unmarked) [Compound 6v, 1-(1-((7-Chloroquinolin-4-yl)amino)propan-2-yl)-3-(6-fluorobenzo[d]thiazol-2-yl)urea] | > 125 | > 125 |  |  | 228 to 230 °C |  |
| CC(CNc1ccnc2cc(Cl)ccc12)NC(=O)Nc1nc2ccc(Br)cc2s1 (centres unmarked) [Compound 6w, 1-(1-((7-Chloroquinolin-4-yl)amino)propan-2-yl)-3-(6-bromobenzo[d]thiazol-2-yl)urea] | 8.19 (≈ 4.02 µg/mL) | 14 (≈ 6.87 µg/mL) | 19 | 3.38 | 246 to 248 °C |  |
| Cc1ccc2nc(NC(=O)NC(C)CNc3ccnc4cc(Cl)ccc34)sc2c1 (centres unmarked) [Compound 6x, 1-(1-((7-Chloroquinolin-4-yl)amino)propan-2-yl)-3-(6-methylbenzo[d]thiazol-2-yl)urea] | 7.22 (≈ 3.07 µg/mL) | 10.3 (≈ 4.41 µg/mL) | 96 | 16.2 | 229 to 231 °C |  |
| CC(CNc1ccnc2cc(Cl)ccc12)NC(=O)Nc1nc2ccc(Cl)cc2s1 (centres unmarked) [Compound 6y, 1-(1-((7-Chloroquinolin-4-yl)amino)propan-2-yl)-3-(6-chlorobenzo[d]thiazol-2-yl)urea] | 2.33 (≈ 1.04 µg/mL) | 8.46 (≈ 3.77 µg/mL) | 78 | 2.22 | 301 to 304 °C |  |
| CO[C@H]1/C=C/O[C@@]2(C)Oc3c(C)c(O)c4c(O)c(c(/C=N/N5CCN(C)CC5)c(O)c4c3C2=O)NC(=O)/C(C)=C\C=C\[C@H](C)[C@H](O)[C@@H](C)[C@@H](O)[C@@H](C)[C@H](OC(C)=O)[C@@H]1C [RIF, Rifampicin, reference compound] | 0.03 (≈ 0.0247 µg/mL) | 0.001 (≈ 0.000823 µg/mL) |  |  |  |  |
| NC(N)=O [Urea] |  |  |  |  |  | MIC90 [1, 5]: >125 µM; MIC90 [2]: >125 µM |
